The text below walks through data of patent US20220041647A1, “ESTRA-1,3,5(10)-TRIENE COMPOUNDS CONDENSED IN POSITION 16(17) WITH A PYRAZOLE RING AS INHIBITORS OF 17-HSD1” (FORENDO PHARMA LTD, priority 2018, published 2022).

Data set [1] addresses T1, recombinant human 17β-HSD2 (Homo sapiens, UniProt P37059).
T1 construct: made in house; host or cells: Sd9 (Sf9) insect cells, baculovirus (Bac to Bac Expression System)
T1 sequence (P37059 1-387): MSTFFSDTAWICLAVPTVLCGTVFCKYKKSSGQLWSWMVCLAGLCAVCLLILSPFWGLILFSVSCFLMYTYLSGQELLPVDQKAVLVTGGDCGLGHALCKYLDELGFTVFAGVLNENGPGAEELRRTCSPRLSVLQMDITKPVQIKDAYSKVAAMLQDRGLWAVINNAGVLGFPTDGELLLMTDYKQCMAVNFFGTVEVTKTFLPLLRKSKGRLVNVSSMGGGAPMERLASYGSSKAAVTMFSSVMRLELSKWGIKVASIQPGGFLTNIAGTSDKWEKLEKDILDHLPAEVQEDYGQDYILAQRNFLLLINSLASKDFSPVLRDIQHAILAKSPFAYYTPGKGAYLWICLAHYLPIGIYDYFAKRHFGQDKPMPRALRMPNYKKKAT
Put plainly: Inhibition of recombinant human 17β-HSD2 (estradiol to estrone conversion, HPLC/radioactivity). Particulars: compound 1 μM; 50 nM estradiol, 1 mM NADH, 30 min RT. It is filed as biochemical. The procedure, abridged: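 Membrane extract of Sf9 cells expressing recombinant human 17β-HSD2 (4 μg/ml), in 20 mM KH2PO4 pH 8.5 with 50 nM ^3H-spiked estradiol and 1 mM NADH, 30 min at RT, 1% DMSO. Compound at 1 μM or 0.1 μM; estrone formation by HPLC radioactivity, % inhibition relative to uninhibited conversion.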

Data set [2] concerns HSD1 enzyme that is expressed in rabbit placenta tissue. The data set is described as follows: Inhibition of E1 to E2 conversion in rabbit placenta tissue homogenate. Conditions: compound 100 nM, 30 nM estrone, 1 mM β-NADPH, 30 min. The class given is biochemical. A digest of the protocol: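 Rabbit placenta homogenate (20 mM KH2PO4, 1 mM EDTA, pH 7.4) incubated 30 min with 1 mM β-NADPH, 30 nM estrone plus 5 nM [3H]-estrone tracer, and inhibitor at 1 μM or 0.1 μM (1% DMSO). Stopped with TCA; estrone and estradiol resolved by HPLC with scintillation counting; % inhibition = 100 − % conversion relative to uninhibited control.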

Data set [3] can be described thus: Metabolic stability assay, human hepatocyte incubations. The class given is in vitro ADME. Particulars: compound 1 μM, human hepatocytes, 0-60 min at 37° C.; read-out: Human hepatocytes MetStab T½ min. A digest of the protocol:
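Compounds at 1 μM (1% DMSO final) incubated with human hepatocytes at 37 °C for 0, 10, 20, 40 and 60 min. Parent measured by LC-MS/MS as % remaining versus time zero; T1/2 obtained by regression of the disappearance curve.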

As for `Cc1ccnc(NC(=O)CC[C@@H]2c3c[nH]nc3[C@@]3(C)CCC4c5ccccc5CCC4C23)c1` (stereo partly drawn) [Compound 168, 3-((8aS,12S)-8a-methyl-1,2,6b,7,8,8a,10,12,12a,12b-decahydronaphtho[2′,1′:4,5]indeno[1,2-c]pyrazol-12-yl)-N-(4-methylpyridin-2-yl)propanamide], the inhibition at 1 µM in data set [1] was found to be 5%. For the same molecule, the “Rabbit placenta inhibition % @100 nM” value in data set [2] was determined as 58%. For the same molecule, the half-life at 1 μM in data set [3] is 68 min.
The corresponding values for `C[C@]12CCC3c4cccc(F)c4CCC3C1[C@H](CCC(=O)NC1CCCCC1)c1c[nH]nc12` (stereo partly drawn) [Compound 207, N-cyclohexyl-3-((8aS,12S)-3-fluoro-8a-methyl-1,2,6b,7,8,8a,10,12,12a,12b-decahydronaphtho[2′,1′:4,5]indeno[1,2-c]pyrazol-12-yl)propanamide] are 4%, 14% and 18 min.
`C[C@]12CCC3c4cccc(F)c4CCC3C1[C@H](CCC(=O)N1Cc3ccccc3C1)c1c[nH]nc12` (stereo partly drawn) [Compound 57, 3-((8aS,12S)-3-fluoro-8a-methyl-1,2,6b,7,8,8a,10,12,12a,12b-decahydronaphtho[2′,1′:4,5]indeno[1,2-c]pyrazol-12-yl)-1-(isoindolin-2-yl)propan-1-one]: the inhibition at 1 µM in data set [1] worked out at 16%. Moreover, the “Rabbit placenta inhibition % @100 nM” value in data set [2] is on record as 48%. Also, the half-life at 1 μM in data set [3] was found to be 58 min.
In the case of `C[C@]12CCC3c4ccccc4CCC3C1[C@H](CCC(=O)Nc1cnccn1)c1c[nH]nc12` (stereo partly drawn) [Compound 189, 3-((8aS,12S)-8a-methyl-1,2,6b,7,8,8a,10,12,12a,12b-decahydronaphtho[2′,1′:4,5]indeno[1,2-c]pyrazol-12-yl)-N-(pyrazin-2-yl)propanamide], in data set [1], the inhibition at 1 µM stood at 9%. Also, in data set [2], the “Rabbit placenta inhibition % @100 nM” value was 46%. For the same molecule, the half-life at 1 μM in data set [3] was 30 min.
The matching figures for `COc1ccc(NC(=O)CC[C@@H]2c3c[nH]nc3[C@@]3(C)CCC4c5ccccc5CCC4C23)nc1` (stereo partly drawn) [Compound 141, N-(5-methoxypyridin-2-yl)-3-((8aS,12S)-8a-methyl-1,2,6b,7,8,8a,10,12,12a,12b-decahydronaphtho[2′,1′:4,5]indeno[1,2-c]pyrazol-12-yl)propanamide]: -1%, 35% and 45 min.

In general, inhibition refers to the relative decrease from the control value, in per cent.
